Data from EP0754455A1, “PHARMACEUTICAL COMPOSITIONS BASED ON AMINOMETHYLINDOLES AND THEIR THERAPEUTICAL APPLICATION AS NEUROPROTECTORS IN PARKINSON AND ALZHEIMER DISEASES” (CONSEJO SUPERIOR INVESTIGACIONES CIENTIFICAS (CSIC), priority 1995, dated 1996).
Where two headings read alike, the source gives them in different places.

What was measured:
MAO-A [1] = molecular target: T1, MAO-A (Rattus norvegicus, UniProt P21396); experiment: biochemical; format: biochemical, Sprague-Dawley rat
T1 construct: human and rat tissue to obtain the isolated forms of monoamine oxidase A and B; from tissue
T1 sequence (P21396 1-526): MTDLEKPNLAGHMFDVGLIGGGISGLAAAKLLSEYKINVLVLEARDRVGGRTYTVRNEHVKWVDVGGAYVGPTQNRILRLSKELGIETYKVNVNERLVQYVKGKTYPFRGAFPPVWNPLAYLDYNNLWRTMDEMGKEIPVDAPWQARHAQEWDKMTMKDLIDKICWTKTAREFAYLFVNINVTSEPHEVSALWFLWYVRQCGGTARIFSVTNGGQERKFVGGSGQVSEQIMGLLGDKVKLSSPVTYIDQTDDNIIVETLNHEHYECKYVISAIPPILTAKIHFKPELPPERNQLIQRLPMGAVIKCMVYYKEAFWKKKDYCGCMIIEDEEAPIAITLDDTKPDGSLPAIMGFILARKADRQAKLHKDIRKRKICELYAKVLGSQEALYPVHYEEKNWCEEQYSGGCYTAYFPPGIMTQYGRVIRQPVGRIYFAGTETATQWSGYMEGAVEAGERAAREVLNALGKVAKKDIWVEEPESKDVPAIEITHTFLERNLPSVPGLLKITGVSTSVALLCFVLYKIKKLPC
Experimental: (§1) The mitochondrial portion of Sprague-Dawley rat was used to determine the MAO-A and MAO-B activity.
(§2) Determinations were made of the comparative MAO-A and MAO-B activity inhibition curves of the various compounds under study at time 0 and 30 min. by measuring the remaining activity to 5-HT and PEA as substrates.

MAO-A [2] = molecular target: T1, MAO-A; experiment: Kinetic parameters of suicide-type inhibition, MAO-A; format: biochemical, Sprague-Dawley rat; conditions: for K^1cat / K1(10^-3) / K^1cat: MAO-A; for K^1cat / K1(10^-3): inhibition efficacy; for K^1cat: velocity constant for formation of the covalent irreversible complex, ± SEM
From the text: Based on the apparent velocity constants of the first order (kapp) obtained for each inhibitor, calculations were made of the K1 and K^1c at (according to the method described by M. Avila et al. 1993, Biochem Pharmac 45, 2231-2237). K1 is the affinity constant of the first stage of the reaction and K1 MAO-A / K1 MAO-B the expression of the selectivity.
(§3) K^1cat is the velocity constant for the formation of the covalent irreversible complex during the second stage of the process. To compare the values of these constants towards the two forms of MAO, we express the inhibition efficacy as the ratio K^1cat/K1. The value of these constants (see Tables 2 and 3), is the result of three different experiments, with their corresponding SEM.

MAO-B [3] = molecular target: T2, MAO-B (Rattus norvegicus, UniProt P19643); experiment: MAO-B inhibition, mitochondrial portion of rat (IC50, time dependence, irreversibility), substrate PEA; format: biochemical, Sprague-Dawley rat; conditions: MAO-B (lines B..), substrate PEA, rat mitochondria
T2 construct: from tissue; host or cells: Sprague-Dawley rat liver, mitochondrial fraction
T2 sequence (P19643 1-520): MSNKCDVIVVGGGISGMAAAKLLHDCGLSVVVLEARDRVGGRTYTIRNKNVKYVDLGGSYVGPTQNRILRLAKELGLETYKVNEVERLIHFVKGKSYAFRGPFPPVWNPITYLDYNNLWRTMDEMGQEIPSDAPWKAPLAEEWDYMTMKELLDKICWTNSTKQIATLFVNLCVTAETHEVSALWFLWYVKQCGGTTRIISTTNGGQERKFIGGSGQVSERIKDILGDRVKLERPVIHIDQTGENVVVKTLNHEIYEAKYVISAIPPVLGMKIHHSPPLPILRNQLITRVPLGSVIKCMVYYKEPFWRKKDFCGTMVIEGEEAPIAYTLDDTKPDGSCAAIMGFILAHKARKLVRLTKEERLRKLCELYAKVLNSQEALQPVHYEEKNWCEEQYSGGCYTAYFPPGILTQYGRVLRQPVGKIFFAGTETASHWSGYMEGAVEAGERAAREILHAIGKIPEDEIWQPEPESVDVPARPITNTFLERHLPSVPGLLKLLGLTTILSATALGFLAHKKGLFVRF
Experimental: as §1, §2

MAO-B [4] = molecular target: T2, MAO-B; experiment: Kinetic parameters of suicide-type inhibition, MAO-B (selectivity K1 MAO-A / K1 MAO-B); format: biochemical, Sprague-Dawley rat; conditions: selectivity for MAO-B
From the text: K1 is the affinity constant of the first stage of the reaction and K1 MAO-A / K1 MAO-B the expression of the selectivity.
as §3

dopamine carrier = molecular target: T3, dopamine carrier (Homo sapiens, UniProt Q01959); experiment: Dopamine carrier inhibition in purified synaptosomes of human caudate; format: biochemical
T3 construct: This assay was carried out in purified synaptosomes of human caudate; from tissue; host or cells: post-mortem human caudate, purified synaptosomes
T3 sequence (Q01959 whole entry): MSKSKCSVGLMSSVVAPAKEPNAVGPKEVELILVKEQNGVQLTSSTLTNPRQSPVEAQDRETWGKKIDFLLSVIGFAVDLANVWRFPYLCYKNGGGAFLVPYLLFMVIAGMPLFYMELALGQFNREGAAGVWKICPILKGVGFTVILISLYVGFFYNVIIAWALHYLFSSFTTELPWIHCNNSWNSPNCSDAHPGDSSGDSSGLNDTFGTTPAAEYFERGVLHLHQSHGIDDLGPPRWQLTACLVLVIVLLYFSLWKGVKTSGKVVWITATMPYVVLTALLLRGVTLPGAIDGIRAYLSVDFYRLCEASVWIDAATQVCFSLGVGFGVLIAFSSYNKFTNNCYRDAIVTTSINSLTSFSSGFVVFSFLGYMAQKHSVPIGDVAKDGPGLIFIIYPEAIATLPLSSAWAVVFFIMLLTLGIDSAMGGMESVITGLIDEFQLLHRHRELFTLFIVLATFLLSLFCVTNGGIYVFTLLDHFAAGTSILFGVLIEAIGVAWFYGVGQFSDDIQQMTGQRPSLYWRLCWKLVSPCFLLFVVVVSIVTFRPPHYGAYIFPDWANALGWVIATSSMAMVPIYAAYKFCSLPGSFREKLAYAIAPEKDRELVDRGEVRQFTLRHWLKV
Experimental: This assay was carried out in purified synaptosomes of human caudate obtained using the same method as described by Rodríguez et al. 1987 Biochem Pharmac 36, 974-976.
The studies were carried out with the same inhibitors used in the rat tissue. The dopamine (DA) concentration was 0.1 µM, a value chosen from the kinetic constants obtained.

MAO-A [5] = molecular target: T4, MAO-A (Mus musculus, UniProt Q64133); experiment: Ex vivo inhibition of brain MAO-A after i.p. administration; format: in vivo, C57/BL mice; conditions: mouse brain homogenate 2 hours after i.p., l-deprenyl 10 mg/Kg, tested compound 4 mg/Kg
T4 construct: the brains homogenised in potassium phosphate buffer 50 mM, pH 7.2; from tissue; host or cells: C57/BL mouse brain homogenate
T4 sequence (Q64133 1-526): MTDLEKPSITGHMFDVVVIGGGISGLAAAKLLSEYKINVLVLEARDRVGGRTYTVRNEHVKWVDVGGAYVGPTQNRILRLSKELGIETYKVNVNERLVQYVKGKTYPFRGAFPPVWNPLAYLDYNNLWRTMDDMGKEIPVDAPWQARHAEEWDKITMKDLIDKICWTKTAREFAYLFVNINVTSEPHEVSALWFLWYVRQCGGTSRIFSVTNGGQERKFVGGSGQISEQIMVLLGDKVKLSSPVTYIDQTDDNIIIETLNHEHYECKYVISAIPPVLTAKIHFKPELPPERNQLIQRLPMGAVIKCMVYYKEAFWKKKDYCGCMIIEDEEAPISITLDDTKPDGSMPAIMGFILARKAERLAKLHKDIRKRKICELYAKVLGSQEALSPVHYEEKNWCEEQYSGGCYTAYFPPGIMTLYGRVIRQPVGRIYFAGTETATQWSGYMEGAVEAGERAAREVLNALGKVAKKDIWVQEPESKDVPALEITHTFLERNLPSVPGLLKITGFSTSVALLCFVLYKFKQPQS
Experimental: The pharmacological assays were carried out on C57/BL mice. These animals are sensitive to the induction of the symptomatology of Parkinson's disease through the action of MPTP.
The animals were sacrificed by decapitation after 2 hours and the brains homogenised in potassium phosphate buffer 50 mM, pH 7.2. Determinations were made of the MAO-A and MAO-B activity in each case using radiometric methods.

[6] = read-out: IC50 30 min., MAO-A (lines A..), substrate 5-HT, 30 min incubation, rat mitochondria
[7] = IC50 30 min., MAO-A (lines A..), substrate 5-HT, 30 min incubation, rat mitochondria
[8] = MAO-A (lines A..), substrate 5-HT, 0 min incubation, rat mitochondria, read-out: IC50 0 min
[9] = IC50 30 min., 30 min incubation
[10] = 0 min incubation, read-out: IC50 0 min
[11] = MAO-A (A..), affinity constant of the first stage, three experiments ± SEM, read-out: K1

Compound | IC50 (MAO-A [1]) | IC50 (MAO-A [1]; [6]) | Ki (MAO-A [2]) | IC50 (MAO-A [1]; [7]) | IC50 (MAO-A [1]; [8]) | IC50 (MAO-B [3]; [9]) | IC50 (MAO-B [3]; [10]) | Ki (MAO-A [2]; [11]) | K^1cat / K1(10^-3) (MAO-A [2]) | K^1cat (MAO-A [2]) | K1 MAO-A/K1 MAO-B (MAO-B [4]) | IC50 (dopamine carrier) | remaining activity at 4 mg/kg (MAO-A [5]; ip, control = 100%) | MAO-A ACTIVITY (MAO-A [5]; control 485)
C#CCN(C)Cc1cc2cc(OCc3ccccc3)ccc2n1C [FA-65] | 1500 nM | 100 nM | 18 nM |  |  |  |  |  |  |  |  |  |  | 
CC#CCN(C)Cc1cc2cc(OCc3ccccc3)ccc2n1C [FA-66] | 1250 nM | 150 nM | 5.4 nM |  |  |  |  |  |  |  |  |  |  | 
C=C=CCN(C)Cc1cc2cc(OCc3ccccc3)ccc2n1C [FA-67] | 2500 nM | 190 nM | 26.5 nM |  |  |  |  |  |  |  |  |  |  | 
CC#CCNCc1cc2cc(OCc3ccccc3)ccc2[nH]1 [FA-74] |  |  |  | 10000 nM | 63000 nM | 250 nM | 1580 nM | 5250 nM | 0.04 10^-3 | 0.21 ± 0.1 min⁻¹ | 276.4 |  |  | 
C=C=CCNCc1cc2cc(OCc3ccccc3)ccc2[nH]1 [FA-75] |  |  |  | 250 nM | 3980 nM | 25 nM | 398 nM | 347 nM | 0.47 10^-3 | 0.16 ± 0.02 min⁻¹ | 63.0 |  |  | 
CC#CCN(CC#CC)Cc1cc2cc(OCc3ccccc3)ccc2[nH]1 [FA-77] |  |  |  | 5000 nM | 39000 nM | 10 nM | 25000 nM | 6520 nM | 0.014 10^-3 | 0.09 ± 0.002 min⁻¹ | 41.5 |  |  | 
C=C=CCN(CC=C=C)Cc1cc2cc(OCc3ccccc3)ccc2[nH]1 [FA-78] |  |  |  | 6300 nM | 120000 nM | 190 nM | 3100 nM | 14100 nM | 0.014 10^-3 | 0.2 ± 0.04 min⁻¹ | 913.6 |  |  | 
C#CCN(C)Cc1cc2cc(OCc3ccccc3)ccc2[nH]1 [FA-87] | 630 nM | 0.79 nM | 54.5 nM |  |  |  |  |  |  |  |  |  |  | 
CC#CCN(C)Cc1cc2cc(OCc3ccccc3)ccc2[nH]1 [FA-88] | 1580 nM | 150 nM | 13.9 nM |  |  |  |  |  |  | 0.04 ± 0.001 min⁻¹ |  |  |  | 
C=C=CCNCc1cc2cc(OCc3ccccc3)ccc2n1C [FA-97] |  |  |  | 25 nM | 199 nM | 12 nM | 790 nM | 18.8 nM | 6.0 10^-3 | 0.12 ± 0.002 min⁻¹ |  |  |  | 
C#CCN(CC#C)Cc1cc2cc(OCc3ccccc3)ccc2n1C [FA-98] |  |  |  | 31000 nM |  | 2500 nM | 19400 nM | 19.8 nM | 5.6 10^-3 | 0.11 ± 0.01 min⁻¹ | 873.5 |  |  | 
C#CCN(C)[C@H](C)Cc1ccccc1 [deprenyl, reference compound] |  |  |  |  |  |  |  |  |  | 0.049 ± 0.01 min⁻¹ |  | 100 nM | 52.5% | 255
